Measured values reported in patent publication US10703729B2, “Pyrazine derivative, and preparation method and medical use thereof” (GUANGZHOU MAGPIE PHARMACEUTICALS CO., LTD., priority 2015, dated 2020).

Key:
[1] = Wang Tingfang, Journal of Pharmaceutical Practice 2011; cited from earlier work
[2] = system: H9c2 cells; assay: Protective effect on IAA-induced H9c2 cell damage (MTT); assay type: cell-based; settings: pre-treatment 1 hour, IAA 50 μM 4 hours, 490 nm, FIG. 16
Protocol: H9c2 cells were seeded in a 96-well plate and incubated for 24 hours at 37° C. in a 5% CO2 incubator. Then, 100 μL it of IND-023 in different concentrations was added and subjected to prepreparation for 1 hour. After induction with IAA (50 μM) for 4 hours, MTT was added, and the absorbance was measured at 490 nm with a microplate reader.

[3] = system: H9c2 cells; assay: Protective effect on A/R-induced H9c2 cell damage (MTT); assay type: cell-based; settings: hypoxia 12 hours, reoxygenation 4 hours, 490 nm, FIG. 17
Protocol: H9c2 cells were seeded in a 96-well plate and incubated at 37° C. in a 5% CO2 incubator for 24 hours, and then hypoxia was indicated. IND-023 of the drug group was diluted with KRB buffer as an anoxic solution into desired concentrations. The model group, after added only KRB solution with 50 μL in each well, was placed into the hypoxic box to be incubated for 12 hours, whereas, the blank group, after the initial medium was replaced with serum-free high glucose DMEM, was placed into a normal incubator. After the end of hypoxia, the medium of the model group was changed to serum-free high glucose DMEM. The drug group was diluted with high-glucose DMEM to corresponding concentrations with 100 μL each well, and was placed in a normal incubator and cultured for 4 hours. After the end of reoxygenation, the existing medium was removed and MTT was added. After 4 hours, the OD value was measured at 490 nm to calculate cell viability.

[4] = system: H9c2 cells; assay: Protective effect on t-BHP-induced H9c2 cell injury (MTT); assay type: cell-based; settings: pre-protected 1 hour, t-BHP 150 μM 12 hours, 490 nm, FIG. 18
Protocol: H9c2 cells were seeded in a 96-well plate in a density of 1×10^4 cells/well, and cultured in a DMEM complete medium for 24 hours. IND-023 was pre-protected for 1 hour, and then diluted t-BHP 150 μM with serum-free high glucose DMEM and induced for 12 hours. MTT (5 mg/mL) was added and cultured for 4 hours. Then, the medium was aspirated, and 100 μL, of DMSO was added to each well. The cells were homogenized by shaking in a shaking table and the absorbance was measured at a wavelength of 490 nm with a BioTek microplate reader to calculate the cell viability.

[5] = system: SD rat myocardial infarction model; assay: SD rat myocardial infarction model; assay type: in vivo; settings: 20 mg/kg via tail vein after modeling, read at 24 hours; FIG. 19
Protocol: A male SD rat was anesthetized with 2.5% isoflurane and fixed. Tracheotomy was performed, and the rat was connected to a ventilator and was cut at the position 0.5 cm on the left side of the sternal along the 2nd intercostal space and the 4th intercostal space 4. The subcutaneous tissue and muscle were bluntly dissected, and the chest was opened at the 4th intercostal space with forceps to expose the chest. The pericardium was carefully opened. The anterior descending branch of the left coronary artery was ligated with non-invasive suture needle No. 8 at the position of 2 to 3 mm from the lower edge of the left atrial appendage. The elevation of the ST segment of lead II ECG after the ligation was taken as an indication of a successful model. Throughout the experiment process, the rat was placed and kept warm on a 37° C. thermostatic table, and after waking up, the rat was placed into the original cage to continue feeding. After successful modeling, the rat was injected via tail vein for 15 min to give 20 mg/kg of IND-023 with a solution of 5% ethanol+5% polyethylene glycol+90% normal saline. […]

Structure (SMILES)	bioavailability [1]	protective effect on IAA-induced H9c2 cell injury [2]	protective effect on A/R-induced H9c2 cell injury [3]	protective effect on t-BHP-induced H9c2 cell injury [4]	protective effect on SD rat myocardial infarction model [5]
O=C(O)[C@H](O)Cc1ccc(O)c(O)c1 [Danshensu, Tanshinol]	9.53-14.18%	–	–	–	–
Cc1nc(COC(=O)C(O)Cc2ccc(O)c(O)c2)c(C)nc1COC(=O)C(O)Cc1ccc(O)c(O)c1 (centres unmarked) [IND-023]	–	significant protective effect	significant protective effect	significant protective effect	protective effect
